Laboratory results from patent publication US11124571B2, “Methods of sensitizing cancer to immunotherapy” (CASE WESTERN RESERVE UNIVERSITY, priority 2016, dated 2021).

How the values were obtained:
[1] = tested on: surface PD-L1 on MM1 (Medulloblastoma) cells; conditions: same cell lines (MM1, RMS); reported in Dorand et al. Science 2016; cited from earlier work
[2] = tested on: PD-L1 transcript in MM1 WT cells; test: PD-L1 mRNA expression (qPCR) in MM1 WT cells treated with Roscovitine and stimulated with IFNγ; format: cell-based, mouse; conditions: Roscovitine 10 μM or 20 μM, 4 days, IFNγ 100 ng/ml 24 hours
Experimental: Total cellular RNA was isolated from 5×10^6-107 cells using TRIZOL and RNAspin Mini kit (GE Healthcare, UK), treated with DNAseI to eliminate genomic DNA, and quantitated using the NanoDrop2000 spectrophotometer. Reverse transcription (RT) of 1 μg of total RNA was performed with oligo(dT)16 using on using SuperScript First Strand Synthesis System for RT-PCR kit (Life Technologies, Carlsbad, Calif.). The resulting cDNA was used as a template for the amplification of target gene transcripts by real time PCR, using SYBR Green PCR Master Mix (Life Technologies, Carlsbad, Calif.) on the ABI 7300 Real-Time PCR machine (Life Technologies, Carlsbad, Calif.). Target gene expression was calculated using the standard curve method upon normalization to cytochrome c housekeeping gene. The primer sequences were as follows: Cdk5 forward: […]; Cdk5 reverse: […]; cytochrome c forward: […]; cytochrome c reverse: […]; p35 forward: […]; p35 reverse: […]; PD-L1 forward: […] and PD-L1 reverse: […].
Murine MB cell lines MM1 were grown in RPMI supplemented with 10% FBS. A stock solution of Roscovitine (10 mM) or vehicle control-DMSO was diluted in fresh tumor medium and added to samples to achieve a final concentration of 10 μM or 20 μM. After 4 days of treatment, cells were subjected to 100 ng/ml rmIFN-γ (R&D Systems) for 24 hours and then harvested for qPCR analysis.

[3] = tested on: surface PD-L1 on DAOY and UW228 human MB lines; test: Surface PD-L1 (flow cytometry) on human MB lines treated with Roscovitine and stimulated with IFNγ; format: cell-based; conditions: IFNγ 24 hours
MM1 tumors = test: In vivo anti-tumor efficacy against subcutaneous MM1 tumors
Experimental: e) 10 8-12 week-old […] male mice per cohort were used for all in vivo tumor growth kinetics experiment.
f) 50,000 tumor cells were inoculated subcutaneously in the flank on Day 0
h) Mice were monitored at least twice a week for tumor growth and tumor size measurements.

[4] = tested on: surface PD-L1 on RMS 76.9 (Rhabdomyosarcoma) cells; test: Surface PD-L1 expression on RMS 76.9 cells upon IFNγ exposure in the presence of compound; format: cell-based, mouse; conditions: 24-hour exposure, IFNγ 100 ng/ml
Experimental: (§1) a) Seed wild type MM1 (Medulloblastoma) and RMS 76.9 (Rhabdomyosarcoma) tumor cells (100,000 per well in 6-well plate and 3 ml media). Use PD-L1-deficient tumor cells (crPDL1; genetically manipulated using CRISPR-Cas9 technology) as controls:
(§2) b) Serum starve overnight
(§3) c) Add various concentration of CYC065 in DMSO, along with 100 ng/ml IFNγ
(§4) d) 24 hours later, harvest cells, stain for PD-L1 using anti-mPDL1-PE antibody and analyze by flow cytometry

[5] = tested on: PD-L1, MHC-II and MHC-I surface expression on harvested MM1 tumor cells; test: IFNγ response of tumor cells harvested on Day 21 from treated mice and cultured in vitro; format: cell-based, mouse; conditions: tumors from in vivo treated mice; cultured 7-10 days without compound; IFNγ 100 ng/ml 24 hours
Source text: i) Tumor mass was resected on Day 21 and grown in culture for 1 week, followed by 24-hour exposure to IFNγ to assess PD-L1 response in vitro.

[6] = tested on: surface PD-L1 on MM1 (Medulloblastoma) cells; test: Surface PD-L1 expression on MM1 cells upon IFNγ exposure in the presence of compound; format: cell-based, mouse
Experimental: as §1, §2, §3, §4

[7] = MM1, 24-hour exposure, IFNγ 100 ng/ml

Row | SMILES | concentration at which effects on PD-L1 down modulation are shown [1] [µM] | PD-L1 transcript [2] | surface PD-L1 upregulation upon IFNγ exposure [3] | mortality (MM1 tumors; 50 mg/kg daily×5 days/week by gavage in water, prolonged exposure, MM1-bearing C57BL/6 mice) [%] | tumor size (MM1 tumors; 50 mg/kg daily×5 days/week by gavage, start Day 0 or Day 7) | concentration at which PD-L1 response upon IFNγ stimulation is completely abrogated [4] [µM] | MHC-II/MHC-I response upon in vitro exposure to IFNγ [5] | PD-L1 response upon in vitro exposure to IFNγ [5] | concentration at which PD-L1 response upon IFNγ stimulation is completely abrogated [6, 7] [µM] | concentration at which cells began to show PD-L1 down-modulation [6, 7] [µM] | increase in potency for PD-L1 down modulation as compared to Roscovitin ([6]; MM1 and RMS cell lines) [fold]
1 | CC[C@H](CO)Nc1nc(NCc2ccccc2)c2ncn(C(C)C)c2n1 [Roscovitine, 6-benzylamino-2-[(R)-1-ethyl-2-hydroxyethylamino]-9-isopropylpurine] | ≥ 10 | dose-dependent decrease | diminished surface PD-L1 upregulation |  |  |  |  |  |  |  | 
2 | CC[C@H](Nc1nc(NCc2cnc(C)cc2C)c2ncn(C(C)C)c2n1)[C@@H](C)O [CYC065] |  |  |  | 70 | significantly smaller sized tumor | 1 | enhanced MHC-II/MHC-I enhancement | reduced PD-L1 response | 1 | 0.5 | > 10
